Test results reported in ChEMBL document CHEMBL4177650, “Synthesis and biological evolution of hydrazones derived from 4-(trifluoromethyl)benzohydrazide” (Bioorg Med Chem Lett, 2017).
Converted amounts (≈) assume the structure as drawn. The source made the active and inactive calls. No cut-off for these calls is given here.

Legend:
Candida tropicalis [1] = test: Antifungal activity against Candida tropicalis 156 after 48 hrs by microdilution broth method; assay type: functional; conditions: Candida tropicalis, 156, 48 h
Pichia kudriavzevii [2] = test: Antifungal activity against Candida krusei E28 after 48 hrs by microdilution broth method; assay type: functional; conditions: E28, 48 h
Nakaseomyces glabratus [3] = test: Antifungal activity against Candida glabrata 20/I after 48 hrs by microdilution broth method; assay type: functional
Candida tropicalis [4] = test: Antifungal activity against Candida tropicalis 156 after 24 hrs by microdilution broth method; assay type: functional; conditions: Candida tropicalis, 156, 24 h
[5] = system: Trichophyton mentagrophytes; test: Antifungal activity against Trichophyton mentagrophytes 445 after 72 hrs by microdilution broth method; assay type: functional; conditions: Trichophyton mentagrophytes, 445, 72 h
[6] = system: Trichophyton mentagrophytes; test: Antifungal activity against Trichophyton mentagrophytes 445 after 120 hrs by microdilution broth method; assay type: functional; conditions: Trichophyton mentagrophytes, 445, 120 h
Nakaseomyces glabratus [7] = test: Antifungal activity against Candida glabrata 20/I after 24 hrs by microdilution broth method; assay type: functional
Pichia kudriavzevii [8] = test: Antifungal activity against Candida krusei E28 after 24 hrs by microdilution broth method; assay type: functional; conditions: E28, 24 h
Klebsiella pneumoniae [9] = test: Antibacterial activity against extended spectrum beta-lactamase-positive Klebsiella pneumoniae J 14368/08 after 24 to 48 hrs by microdilution broth method; assay type: functional, organism-based
Mycobacterium kansasii [10] = test: Antimycobacterial activity against Mycobacterium kansasii 6509/96 after 7 days by micromethod; assay type: functional; conditions: 6509/96, 168 h
Staphylococcus aureus [11] = test: Antibacterial activity against gram-positive methicillin-resistant Staphylococcus aureus H 5996/08 after 24 hrs by microdilution broth method; assay type: functional; conditions: H 5996/08, 24 h
Mycobacterium kansasii [12] = test: Antimycobacterial activity against Mycobacterium kansasii 6509/96 after 14 days by micromethod; assay type: functional; conditions: 6509/96, 336 h
Staphylococcus aureus [13] = test: Antibacterial activity against gram-positive methicillin-resistant Staphylococcus aureus H 5996/08 after 48 hrs by microdilution broth method; assay type: functional; conditions: H 5996/08, 48 h
Mycobacterium avium [14] = test: Antimycobacterial activity against Mycobacterium avium 330/88 after 21 days by micromethod; assay type: functional; conditions: 330/88, 504 h
Mycobacterium avium [15] = test: Antimycobacterial activity against Mycobacterium avium 330/88 after 14 days by micromethod; assay type: functional; conditions: 330/88, 336 h
Staphylococcus aureus [16] = test: Antibacterial activity against gram-positive Staphylococcus aureus CCM 4516/08 after 48 hrs by microdilution broth method; assay type: functional; conditions: CCM 4516/08, 48 h
Mycobacterium kansasii [17] = test: Antimycobacterial activity against Mycobacterium kansasii 6509/96 after 21 days by micromethod; assay type: functional; conditions: 6509/96, 504 h
[18] = system: Mycobacterium tuberculosis; test: Antimycobacterial activity against Mycobacterium tuberculosis H37Rv 331/88 after 21 days by micromethod; assay type: functional; conditions: H37Rv 331/88, 504 h
Escherichia coli [19] = test: Antibacterial activity against gram-negative Escherichia coli CCM 4517 after 24 hrs by microdilution broth method; assay type: functional; conditions: CCM 4517, 24 h
[20] = system: Staphylococcus epidermidis; test: Antibacterial activity against gram-positive Staphylococcus epidermidis H 6966/08 after 24 hrs by microdilution broth method; assay type: functional; conditions: H 6966/08, 24 h
Enterococcus faecalis [21] = test: Antibacterial activity against gram-positive Enterococcus faecalis J 14365/08 after 24 hrs by microdilution broth method; assay type: functional; conditions: J 14365/08, 24 h
Mycobacterium kansasii [22] = test: Antimycobacterial activity against Mycobacterium kansasii 6509/80 after 14 days by micromethod; assay type: functional; conditions: 6509/80, 336 h
Candida albicans = test: Antifungal activity against Candida albicans ATCC 44859 after 24 to 48 hrs by microdilution broth method; assay type: functional, organism-based
Trichosporon asahii = test: Antifungal activity against Trichosporon asahii 1188 after 24 to 48 hrs by microdilution broth method; assay type: functional, organism-based
Mycobacterium kansasii [23] = test: Antimycobacterial activity against Mycobacterium kansasii 6509/80 after 21 days by micromethod; assay type: functional; conditions: 6509/80, 504 h
Lichtheimia corymbifera = test: Antifungal activity against Absidia corymbifera 272 after 24 to 48 hrs by microdilution broth method; assay type: functional, organism-based
Enterococcus faecalis [24] = test: Antibacterial activity against gram-positive Enterococcus faecalis J 14365/08 after 48 hrs by microdilution broth method; assay type: functional; conditions: J 14365/08, 48 h
Staphylococcus aureus [25] = test: Antibacterial activity against gram-positive Staphylococcus aureus CCM 4516/08 after 24 hrs by microdilution broth method; assay type: functional; conditions: CCM 4516/08, 24 h
Aspergillus fumigatus = test: Antifungal activity against Aspergillus fumigatus 231 after 24 to 48 hrs by microdilution broth method; assay type: functional, organism-based
[26] = system: Staphylococcus epidermidis; test: Antibacterial activity against gram-positive Staphylococcus epidermidis H 6966/08 after 48 hrs by microdilution broth method; assay type: functional; conditions: H 6966/08, 48 h
Klebsiella pneumoniae [27] = test: Antibacterial activity against gram-negative Klebsiella pneumoniae D 11750/08 after 24 to 48 hrs by microdilution broth method; assay type: functional, organism-based
Escherichia coli [28] = test: Antibacterial activity against gram-negative Escherichia coli CCM 4517 after 48 hrs by microdilution broth method; assay type: functional; conditions: CCM 4517, 48 h
Mycobacterium kansasii [29] = test: Antimycobacterial activity against Mycobacterium kansasii 6509/80 after 7 days by micromethod; assay type: functional; conditions: 6509/80, 168 h
Pseudomonas aeruginosa = test: Antibacterial activity against gram-negative Pseudomonas aeruginosa CCM 1961 after 48 hrs by microdilution broth method; assay type: functional, organism-based
[30] = system: Mycobacterium tuberculosis; test: Antimycobacterial activity against Mycobacterium tuberculosis H37Rv 331/88 after 14 days by micromethod; assay type: functional; conditions: H37Rv 331/88, 336 h
MONO-MAC-6 [31] = test: Cytostatic activity against human MONO-MAC-6 cells incubated overnight followed by compound wash measured after 72 hrs by MTT assay; assay type: ADME, cell-based; conditions: MONO-MAC-6, 72 h
MONO-MAC-6 [32] = test: Cytotoxicity against human MONO-MAC-6 cells after overnight incubation by MTT assay; assay type: functional, cell-based
[33] = Cytotoxicity against mouse bone marrow macrophages after overnight incubation by MTT assay; conditions: BMDM
HepG2 [34] = test: Cytotoxicity against human HepG2 cells after overnight incubation by MTT assay; assay type: cell-based
[35] = Solubility of the compound in Mueller-Hinton broth; assay type: physicochemical
[36] = Selectivity index, ratio of IC50 for human HepG2 cells to MIC for Mycobacterium tuberculosis H37Rv 331/88; assay type: toxicity; conditions: read-out: Selectivity Index
HepG2 [37] = test: Cytostatic activity against human HepG2 cells incubated overnight followed by compound wash measured after 72 hrs by MTT assay; assay type: ADME, cell-based; conditions: HepG2, 72 h

Compound | MIC (Candida tropicalis [1]) | MIC (Pichia kudriavzevii [2]) | MIC (Nakaseomyces glabratus [3]) | MIC (Candida tropicalis [4]) | MIC [5] | MIC [6] | MIC (Nakaseomyces glabratus [7]) | MIC (Pichia kudriavzevii [8]) | Activity (Klebsiella pneumoniae [9]) | MIC (Mycobacterium kansasii [10]) | MIC (Mycobacterium kansasii [12]) | MIC (Mycobacterium avium [14]) | MIC (Mycobacterium avium [15]) | MIC (Mycobacterium kansasii [17]) | MIC [18] | MIC (Mycobacterium kansasii [22]) | Activity (Candida albicans) | MIC (Mycobacterium kansasii [23]) | MIC (Mycobacterium kansasii [29]) | MIC [30] | further results
OC(Cn1cncn1)(Cn1cncn1)c1ccc(F)cc1F [FLUCONAZOLE] | > 500 µM | 250 µM (≈ 76.6 µg/mL) | 500 µM (≈ 153 µg/mL) | > 500 µM | 7.81 µM (≈ 2.39 µg/mL) | 125 µM (≈ 38.3 µg/mL) | 31.2 µM (≈ 9.57 µg/mL) | 125 µM (≈ 38.3 µg/mL) |  |  |  |  |  |  |  |  |  |  |  |  | 
O=C(N/N=C/c1ccc(O)cc1)c1ccc(C(F)(F)F)cc1 | > 125 µM | > 125 µM | > 125 µM | > 125 µM | > 125 µM | > 125 µM | > 125 µM | > 125 µM | inactive | 250 µM (≈ 77.1 µg/mL) | 500 µM (≈ 154 µg/mL) | 500 µM (≈ 154 µg/mL) | 250 µM (≈ 77.1 µg/mL) | 500 µM (≈ 154 µg/mL) | 125 µM (≈ 38.5 µg/mL) | 125 µM (≈ 38.5 µg/mL) | inactive | 125 µM (≈ 38.5 µg/mL) | 62.5 µM (≈ 19.3 µg/mL) | 125 µM (≈ 38.5 µg/mL) | MIC (Staphylococcus aureus [11]): 250 µM (≈ 77.1 µg/mL); MIC (Staphylococcus aureus [13]): 250 µM (≈ 77.1 µg/mL); MIC (Staphylococcus aureus [16]): 250 µM (≈ 77.1 µg/mL); MIC (Escherichia coli [19]): > 250 µM; MIC [20]: 125 µM (≈ 38.5 µg/mL); MIC (Enterococcus faecalis [21]): > 250 µM; Activity (Trichosporon asahii): inactive; Activity (Lichtheimia corymbifera): inactive; MIC (Enterococcus faecalis [24]): > 250 µM; MIC (Staphylococcus aureus [25]): 250 µM (≈ 77.1 µg/mL); Activity (Aspergillus fumigatus): inactive; MIC [26]: 125 µM (≈ 38.5 µg/mL); Activity (Klebsiella pneumoniae [27]): inactive; MIC (Escherichia coli [28]): > 250 µM; Activity (Pseudomonas aeruginosa): inactive
O=C(N/N=C/c1ccc([N+](=O)[O-])cc1)c1ccc(C(F)(F)F)cc1 |  |  |  |  |  |  |  |  | inactive | 250 µM (≈ 84.3 µg/mL) | > 250 µM | > 250 µM | > 250 µM | > 250 µM | > 250 µM | 62.5 µM (≈ 21.1 µg/mL) | inactive | 62.5 µM (≈ 21.1 µg/mL) | 32 µM (≈ 10.8 µg/mL) | 125 µM (≈ 42.2 µg/mL) | Activity (Trichosporon asahii): inactive; Activity (Lichtheimia corymbifera): inactive; Activity (Aspergillus fumigatus): inactive; Activity (Klebsiella pneumoniae [27]): inactive; Activity (Pseudomonas aeruginosa): inactive
CC12CCC(C/C1=N\NC(=O)c1ccc(C(F)(F)F)cc1)C2(C)C (configuration not stated) |  |  |  |  |  |  |  |  |  | > 250 µM | > 250 µM | > 250 µM | > 250 µM | > 250 µM | 4 µM (≈ 1.35 µg/mL) | > 250 µM |  | > 250 µM | > 250 µM | 4 µM (≈ 1.35 µg/mL) | IC50 (MONO-MAC-6 [31]): > 100 µM; IC50 (MONO-MAC-6 [32]): > 100 µM; IC50 [33]: > 100 µM; IC50 (HepG2 [34]): > 100 µM; solubility [35]: Insoluble; selectivity ratio [36]: > 25; IC50 (HepG2 [37]): > 100 µM
CC(C)=NNC(=O)c1ccc(C(F)(F)F)cc1 | > 500 µM | > 500 µM | > 500 µM | > 500 µM | > 500 µM | > 500 µM | > 500 µM | > 500 µM | inactive | > 125 µM | > 125 µM | > 125 µM | > 125 µM | > 125 µM | > 125 µM | > 125 µM | inactive | > 125 µM | 125 µM (≈ 30.5 µg/mL) | > 125 µM | MIC (Staphylococcus aureus [11]): > 500 µM; MIC (Staphylococcus aureus [13]): > 500 µM; MIC (Staphylococcus aureus [16]): > 500 µM; MIC (Escherichia coli [19]): > 500 µM; MIC [20]: 500 µM (≈ 122 µg/mL); MIC (Enterococcus faecalis [21]): 250 µM (≈ 61.1 µg/mL); Activity (Trichosporon asahii): inactive; Activity (Lichtheimia corymbifera): inactive; MIC (Enterococcus faecalis [24]): 500 µM (≈ 122 µg/mL); MIC (Staphylococcus aureus [25]): > 500 µM; Activity (Aspergillus fumigatus): inactive; MIC [26]: > 500 µM; Activity (Klebsiella pneumoniae [27]): inactive; MIC (Escherichia coli [28]): > 500 µM; Activity (Pseudomonas aeruginosa): inactive
O=C(NN=C1CCCCC1)c1ccc(C(F)(F)F)cc1 |  |  |  |  |  |  |  |  |  | 500 µM (≈ 142 µg/mL) | 1000 µM (≈ 284 µg/mL) | > 125 µM | > 125 µM | 1000 µM (≈ 284 µg/mL) | 500 µM (≈ 142 µg/mL) | > 1000 µM |  | > 1000 µM | 500 µM (≈ 142 µg/mL) | 250 µM (≈ 71.1 µg/mL) | 
